From patent US20240115654A1, “INTRAVENOUS ADMINISTRATION OF ENGINEERED ANTIMICROBIAL AMPHIPHILIC PEPTIDES” (priority 2021, published 2024)
Like-named read-outs stand apart in the source and are kept apart here. Peptide text beside a SMILES is read from it.

How the values were obtained:
[1] = mice
Text: Male CD-1 mice will be received from an approved vendor and allowed to acclimate for a minimum of two days. Fasting will be not required.
All dosing syringes will be weighed prior to and following dosing. IV doses will be administered as a slow bolus (over ˜30 seconds) via direct venipuncture of a tail vein. All animals will be observed at dosing and each scheduled collection. All abnormalities will be recorded.
Terminal blood samples will be collected via cardiac puncture following inhalation anesthesia.
Sample Processing and Storage: Blood samples will be collected into K2EDTA tubes and stored on wet ice. Whole blood will be processed to plasma by centrifugation (3500 rpm at 5° C.) within 30 minutes of collection. Plasma samples will be split into 2 equal aliquots and each transferred into 96 well plates (matrix tubes) and stored at −80° C. until analysis. Administered doses will be determined gravimetrically.
Prior to extraction, a known concentration of a mass-adjusted internal standard (IS) will be added to assess recovery and allow for quantitation. Purified samples will be further subjected to high-performance liquid chromatography (HPLC) using C18 300 or 130 angstrom columns prior to MS/MS analysis. Multiple charge states will be observed by MS, so MS/MS will be employed to enable multiple reaction monitoring (MRM) analyses to determine the most MRM transitions with the highest signal-to-noise gain. Compound plasma concentrations will be determined by comparing to and compensating with co-purified IS peak intensity and validated calibrated standard curves.
Pharmacokinetic parameters will be calculated using non-compartmental methods as implemented in the Phoenix® WinNonlin® ver. 6.3 comprehensive TK/PK analysis software program (Pharsight Corporation; Mountain View, CA) using an IV infusion model. Pharmacokinetic analysis will be conducted using a 30-minute intravenous infusion time. Therefore, 30 minutes will be added to each sample time point postdose to obtain nominal time for TK analysis. Nominal times and dosage levels will be used for all calculations. Values below the lower limit of quantitation (BLQ) will be assigned a value of zero for the pharmacokinetic calculations. Microsoft® Excel® 2013 will be used for receipt of bioanalytical data, minor formatting, including setting BLQ values to “0”, transfer into WinNonlin® for PK analysis, and calculation of the mean when an approximated value will be excluded. All plasma concentration data from all animals will be included in the analysis. Graphical presentations will be performed using Microsoft® Excel® 2013.

[2] = tested on: Escherichia coli ATCC 25922 (QC); conditions: E. coli ATCC 25922; established CLSI QC range; cited from earlier work
[3] = IV infusion 1 mg/kg, Group 1, mean of rats
[4] = IV infusion 5 mg/kg, Group 2, mean of rats
[5] = IV infusion 10 mg/kg, Group 4, mean of rats

CC(C)[C@H](NC(=O)[C@H](Cc1c[nH]c2ccccc12)NC(=O)[C@H](CCCNC(=N)N)NC(=O)[C@H](CCCNC(=N)N)NC(=O)[C@@H](NC(=O)[C@@H](NC(=O)[C@H](CCCNC(=N)N)NC(=O)[C@@H](NC(=O)[C@@H](NC(=O)[C@H](CCCNC(=N)N)NC(=O)[C@H](CCCNC(=N)N)NC(=O)[C@H](Cc1c[nH]c2ccccc12)NC(=O)[C@@H](NC(=O)[C@H](CCCNC(=N)N)NC(=O)[C@H](CCCNC(=N)N)NC(=O)[C@@H](NC(=O)[C@H](CCCNC(=N)N)NC(=O)[C@H](CCCNC(=N)N)NC(=O)[C@@H](NC(=O)[C@H](Cc1c[nH]c2ccccc12)NC(=O)[C@H](CCCNC(=N)N)NC(=O)[C@@H](N)CCCNC(=N)N)C(C)C)C(C)C)C(C)C)C(C)C)C(C)C)C(C)C)C(C)C)C(=O)N[C@@H](CCCNC(=N)N)C(=O)N[C@@H](CCCNC(=N)N)C(N)=O [SEQ ID NO: 1] (H-RRWVRRVRRVWRRVVRVVRRWVRR-NH2)
AUCinf ([1]; 3 mg/kg IV): <3500 ng·h/mL
CL ([1]; 3 mg/kg IV): ~5 mL/min/kg
Extrapolated ([1]; 3 mg/kg IV): ~0.5%
MRT last ([1]; 3 mg/kg IV): ~0.5 h
T1/2 ([1]; 3 mg/kg IV): ~8 h
Vss ([1]; 3 mg/kg IV): ~0.2 L/kg
Vz ([1]; 3 mg/kg IV): ~3 L/kg
AUCinf_D ([1]; 15 mg/kg IV): 3589 kg·ng·h/mL/ng
Extrapolated ([1]; 15 mg/kg IV): 0.49%
AUCinf_D [3]: 787 kg·ng·h/mL/ng
CL [3]: 21.87 mL/min/kg
Extrapolated [3]: 3.28%
Vss [3]: 3.401 L/kg
Vz [3]: 10.884 L/kg
AUCinf_D [4]: 5158 kg·ng·h/mL/ng
Extrapolated [4]: 0.424%
Vss [4]: 0.229 L/kg
Vz [4]: 1.533 L/kg
AUCinf_D [5]: 8049 kg·ng·h/mL/ng
CL [5]: 2.12 mL/min/kg
Extrapolated [5]: 0.186%
Vz [5]: 0.749 L/kg

Colistin [reference compound]
MIC QC range (in parentheses under the MIC) [2]: (0.25-2) μg/mL
